In the NIST ThermoML archive (doi:10.1016/j.jct.2010.08.021):

Test: mn = molality of the nth substance listed, in mol/kg
Conditions: 101 kPa, Liquid; for speed of sound: Sing-around technique in a fixed-path interferometer; for mass density: Vibrating tube method

N[C@@H](CO)C(=O)O [L-serine] + O
Conditions	mass density [kg/m3]	speed of sound [m/s]
288.15 K, m1 = 0.0192	999.979	1467.9
288.15 K, m1 = 0.028	1000.38	1468.5
288.15 K, m1 = 0.037	1000.78	1468.9
288.15 K, m1 = 0.043	1001.05	1469.4
288.15 K, m1 = 0.0486	1001.3	1469.8
288.15 K, m1 = 0.057	1001.68	1470.3
288.15 K, m1 = 0.0657	1002.07	1470.9
288.15 K, m1 = 0.0804	1002.73	1471.8
288.15 K, m1 = 0.0942	1003.34	1472.7
288.15 K, m1 = 0.1156	1004.3	1474.1
288.15 K, m1 = 0.1329	1005.07	1475.2
288.15 K, m1 = 0.1535	1005.99	1476.6
288.15 K, m1 = 0.1642	1006.46	1477.3
288.15 K, m1 = 0.1789	1007.11	1478.3
288.15 K, m1 = 0.1944	1007.8	1479.2
293.15 K, m1 = 0.0192	999.07	1484
293.15 K, m1 = 0.028	999.466	1484.5
293.15 K, m1 = 0.037	999.867	1485
293.15 K, m1 = 0.043	1000.13	1485.4
293.15 K, m1 = 0.0486	1000.38	1485.8
293.15 K, m1 = 0.057	1000.75	1486.3
293.15 K, m1 = 0.0657	1001.14	1486.8
293.15 K, m1 = 0.0804	1001.79	1487.8
293.15 K, m1 = 0.0942	1002.4	1488.7
293.15 K, m1 = 0.1156	1003.35	1490
293.15 K, m1 = 0.1329	1004.11	1491.1
293.15 K, m1 = 0.1535	1005.02	1492.4
293.15 K, m1 = 0.1642	1005.49	1493.1
293.15 K, m1 = 0.1789	1006.13	1494
293.15 K, m1 = 0.1944	1006.81	1495
298.15 K, m1 = 0.0192	997.9	1498.2
298.15 K, m1 = 0.028	998.291	1498.8
298.15 K, m1 = 0.037	998.691	1499.2
298.15 K, m1 = 0.043	998.951	1499.6
298.15 K, m1 = 0.0486	999.198	1500
298.15 K, m1 = 0.057	999.564	1500.5
298.15 K, m1 = 0.0657	999.952	1501
298.15 K, m1 = 0.0804	1000.6	1501.9
298.15 K, m1 = 0.0942	1001.2	1502.7
298.15 K, m1 = 0.1156	1002.14	1504
298.15 K, m1 = 0.1329	1002.89	1505.1
298.15 K, m1 = 0.1535	1003.79	1506.4
298.15 K, m1 = 0.1642	1004.26	1507
298.15 K, m1 = 0.1789	1004.89	1507.9
298.15 K, m1 = 0.1944	1005.57	1508.8
303.15 K, m1 = 0.0192	996.495	1510.5
303.15 K, m1 = 0.028	996.883	1511.1
303.15 K, m1 = 0.037	997.277	1511.5
303.15 K, m1 = 0.043	997.539	1511.9
303.15 K, m1 = 0.0486	997.781	1512.3
303.15 K, m1 = 0.057	998.143	1512.8
303.15 K, m1 = 0.0657	998.53	1513.2
303.15 K, m1 = 0.0804	999.17	1514.1
303.15 K, m1 = 0.0942	999.763	1514.9
303.15 K, m1 = 0.1156	1000.7	1516.2
303.15 K, m1 = 0.1329	1001.45	1517.2
303.15 K, m1 = 0.1535	1002.34	1518.5
303.15 K, m1 = 0.1642	1002.8	1519.1
303.15 K, m1 = 0.1789	1003.43	1520
303.15 K, m1 = 0.1944	1004.1	1520.8
308.15 K, m1 = 0.0192	994.871	1521.2
308.15 K, m1 = 0.028	995.258	1521.7
308.15 K, m1 = 0.037	995.648	1522.1
308.15 K, m1 = 0.043	995.908	1522.5
308.15 K, m1 = 0.0486	996.152	1522.9
308.15 K, m1 = 0.057	996.512	1523.4
308.15 K, m1 = 0.0657	996.896	1523.8
308.15 K, m1 = 0.0804	997.529	1524.7
308.15 K, m1 = 0.0942	998.119	1525.5
308.15 K, m1 = 0.1156	999.047	1526.7
308.15 K, m1 = 0.1329	999.793	1527.7
308.15 K, m1 = 0.1535	1000.68	1528.9
308.15 K, m1 = 0.1642	1001.14	1529.5
308.15 K, m1 = 0.1789	1001.76	1530.3
308.15 K, m1 = 0.1944	1002.43	1531.2
313.15 K, m1 = 0.0192	993.05	1530.3
313.15 K, m1 = 0.028	993.434	1530.8
313.15 K, m1 = 0.037	993.821	1531.2
313.15 K, m1 = 0.043	994.079	1531.6
313.15 K, m1 = 0.0486	994.322	1532
313.15 K, m1 = 0.057	994.68	1532.4
313.15 K, m1 = 0.0657	995.061	1532.8
313.15 K, m1 = 0.0804	995.691	1533.7
313.15 K, m1 = 0.0942	996.279	1534.4
313.15 K, m1 = 0.1156	997.203	1535.7
313.15 K, m1 = 0.1329	997.943	1536.6
313.15 K, m1 = 0.1535	998.827	1537.8
313.15 K, m1 = 0.1642	999.283	1538.4
313.15 K, m1 = 0.1789	999.905	1539.2
313.15 K, m1 = 0.1944	1000.57	1540
